Experimental data reported in patent publication US10245271B2, “Treatment of impaired cognitive flexibility with TrkB receptor antagonists” (Florida State University Research Foundation, Inc., priority 2015, dated 2019).
“Also recorded” adds a separate entry of the source.

Columns and labels:
TrkC = TrkC (Homo sapiens, UniProt Q16288); conditions: cited from earlier work
[1] = tested on: prenatally cocaine-exposed mice; assay: Odor versus odor discrimination (two-odor discrimination testing); assay type: in vivo, mouse (Swiss Webster); conditions: ANA-12 i.p. twice a day, 1 mg/kg/day; data not shown
Method: (§1) Olfactometry: Reversal learning was assayed in an automated olfactometer based on odor learning and detection using water as reward (41, 42). Briefly, odorants were presented via an 8-channel liquid dilution computerized olfactometer (Knosys LD8-1, Tampa, Fla.) so that odorant threshold determinations were automated and stimulus concentration, timing of onset and offset, and stimulus control of behavior could be controlled reliably. We modified our Knosys system to provide additional mechanical dampening of the solenoid pinch valves to permit incorporation of materials for mounting the machine in-line with sterilization of the olfactometer.
During the go no-go operant training mice inserted their snout into the odor sampling port to initiate a trial and waited until the odor stimulus was presented. […] The mice were rewarded for lick decisions paired with a positively entrained odor (S+) and also for correct rejections paired with a negatively entrained odor (S−). This establishes the “go no-go” reward criteria. The percentage of correct responses per trial was determined by the formula: % correct responses=[(HITs+Correct Rejections)/20]×100, where a HIT is defined as a criterion response in the presence of S+, and a Correct Rejection (CR) is a failure to make a criterion response in the presence of […] 20 represents the number of trials per block. […]

[2] = tested on: prenatally cocaine-exposed mice; assay: Olfactory (odor) reversal learning, go no-go olfactometer paradigm; assay type: in vivo, mouse (Swiss Webster)
Method: Swiss Webster mice were housed in a temperature and humidity controlled environment on a 12 hr light/dark cycle with food and water available ad libitum were bred to obtain timed pregnancies.
Singly housed dams received twice daily (7 AM and 7 PM) subcutaneous injections of cocaine (20 mg/kg/injection: total daily dose=40 mg/kg/day) or saline (same volume and time of administration as the cocaine injection) from the 8th day of pregnancy until the day of birth. The period of cocaine exposure corresponds to mid-first trimester of human pregnancies.
as §1
The Knosys olfactometer employs operant conditioning in the form of both positive and negative reinforcements. Positive reinforcement is used when pairing an odorant with water reward (S+). A 10-second time out or negative reinforcement occurs as a result of a mouse responding to a negative cue or diluent (S−). Mice were therefore trained in a classical “go no-go” operant conditioning paradigm to recognize an odorant.
Operant training: Mice were water-deprived to 85% of their baseline bodyweight to motivate them for a water reward. Operant training was performed using a step-wise battery of tasks that began with reward reinforcement for learning to lick a water delivery tube and snout insertion into the odor sampling port. Mice advanced to the next stage after 30 reinforcements. Next, mice were reinforced for lick decisions paired with a positively entrained odor (S+). They were required to nose poke for an extended period of time to sample an odor prior to receiving water reinforcement.
During the go no-go operant training mice inserted their snout into the odor sampling port to initiate a trial and waited until the odor stimulus was presented. […] The mice were rewarded for lick decisions paired with a positively entrained odor (S+) and also for correct rejections paired with a negatively entrained odor (S−). This establishes the “go no-go” reward criteria. The percentage of correct responses per trial was determined by the formula: % correct responses=[(HITs+Correct Rejections)/20]×100, where a HIT is defined as a criterion response in the presence of S+, and a Correct Rejection (CR) is a failure to make a criterion response in the presence of […] 20 represents the number of trials per block.
Odor Reversal Learning: Once mice achieved criteria performance on the two-odor discrimination testing for a week, mice underwent an odor-reversal learning paradigm. Here mice were introduced to the switch (reversal) of the S+ for the S− stimulus where the previously rewarded odor stimulus now lacked the water reward and the previously unrewarded odor stimulus was now paired with the water reward.
The scent stimuli used were 5% Ethyl Acetate (EA) and 1% Acetophenone (AP).
Upon successful completion of the training phase and odor discrimination phase a subset of mice were randomly assigned to the ANA-12 injection group. ANA-12 (Sigma Aldrich, St. Louis, Mo.; SML0209) was administered twice daily [0.5 mg/kg; 1.0 mg/kg/day intraperitoneal (i.p.)] for 13 consecutive days. ANA-12 was dissolved in 100% DMSO (stock), and diluted further such that the final concentration of DMSO administered to the mice was 1%. On days 8-10 of the injection period, the mice were water deprived (to 85% of pre-deprivation weight). […]

TrkA = TrkA (Homo sapiens, UniProt P04629); conditions: cited from earlier work
mice = mice dosed with ANA-12; Cazorla et al., J. Clin. Invest. 121(5), 1846-57 (2011); cited from earlier work

Chain of TrkC (Q16288 32-839, species assumed): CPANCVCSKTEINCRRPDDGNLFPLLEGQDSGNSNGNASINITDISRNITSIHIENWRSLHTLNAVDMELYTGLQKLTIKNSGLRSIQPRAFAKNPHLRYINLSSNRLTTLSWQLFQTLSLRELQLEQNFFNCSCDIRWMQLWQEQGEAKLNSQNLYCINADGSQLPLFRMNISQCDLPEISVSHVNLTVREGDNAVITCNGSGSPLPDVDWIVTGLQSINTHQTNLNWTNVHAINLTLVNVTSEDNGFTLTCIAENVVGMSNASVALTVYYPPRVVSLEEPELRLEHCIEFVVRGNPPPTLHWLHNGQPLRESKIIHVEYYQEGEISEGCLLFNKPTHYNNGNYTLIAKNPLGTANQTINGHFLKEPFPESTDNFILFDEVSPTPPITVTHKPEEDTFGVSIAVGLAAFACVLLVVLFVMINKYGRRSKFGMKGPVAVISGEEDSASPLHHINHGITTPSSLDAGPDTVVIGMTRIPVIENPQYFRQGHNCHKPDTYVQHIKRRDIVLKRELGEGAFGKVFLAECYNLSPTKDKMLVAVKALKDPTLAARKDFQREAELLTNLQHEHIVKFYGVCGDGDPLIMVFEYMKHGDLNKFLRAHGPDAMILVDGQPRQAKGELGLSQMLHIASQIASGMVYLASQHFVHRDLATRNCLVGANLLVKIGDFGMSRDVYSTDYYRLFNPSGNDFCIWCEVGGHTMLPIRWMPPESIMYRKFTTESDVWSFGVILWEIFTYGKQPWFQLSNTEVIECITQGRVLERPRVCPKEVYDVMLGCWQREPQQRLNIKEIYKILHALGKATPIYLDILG
Chain of TrkA (P04629 33-796, species assumed): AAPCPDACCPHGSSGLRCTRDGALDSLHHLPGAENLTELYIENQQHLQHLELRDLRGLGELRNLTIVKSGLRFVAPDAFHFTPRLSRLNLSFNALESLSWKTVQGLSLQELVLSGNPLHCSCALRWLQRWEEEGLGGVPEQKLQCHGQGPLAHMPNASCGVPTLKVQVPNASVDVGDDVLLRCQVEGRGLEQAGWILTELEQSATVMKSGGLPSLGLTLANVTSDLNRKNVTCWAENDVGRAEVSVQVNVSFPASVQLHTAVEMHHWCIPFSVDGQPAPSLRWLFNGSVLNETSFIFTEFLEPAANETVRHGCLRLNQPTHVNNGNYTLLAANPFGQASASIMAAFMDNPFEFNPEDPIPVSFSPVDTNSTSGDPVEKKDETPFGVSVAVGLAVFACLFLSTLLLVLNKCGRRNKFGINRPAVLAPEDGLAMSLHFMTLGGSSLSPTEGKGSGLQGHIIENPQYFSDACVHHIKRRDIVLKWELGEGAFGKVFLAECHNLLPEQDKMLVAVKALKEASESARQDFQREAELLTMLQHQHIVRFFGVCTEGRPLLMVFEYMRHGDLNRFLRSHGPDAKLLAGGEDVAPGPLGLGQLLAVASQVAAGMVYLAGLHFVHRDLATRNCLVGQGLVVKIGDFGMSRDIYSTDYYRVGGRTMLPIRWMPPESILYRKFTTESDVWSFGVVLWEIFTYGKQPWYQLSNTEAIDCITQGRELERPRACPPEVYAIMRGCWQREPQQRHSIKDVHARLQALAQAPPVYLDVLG

## O=C(Nc1ccccc1C(=O)NC1CCCCNC1=O)c1cc2ccccc2s1 (stereo not shown) [ANA-12, N-[2-[[(Hexahydro-2-oxo-1H-azepin-3-yl)amino]carbonyl]phenyl]-benzo[b]thiophene-2-carboxamide]
TrkC
  effect on TrkC functions: without substantially altering
[1]
  correct hits in odor versus odor discrimination: > 80%
[2]; ANA-12 treated prenatally cocaine-exposed mice vs prenatally cocaine-exposed mice, i.p. 1 mg/kg/day, 13 days, 1 mg/kg/day
  performance in the reversal paradigm: performed better; also recorded: significant improvement in performance
[2]; ANA-12 treatment, summary statement
  cognitive flexibility of treated subjects: a statistically significant number of subjects tested showed improved cognitive flexibility
[2]; Cocaine+ANA12 group, i.p. 1 mg/kg/day, 13 days
  Number of trials to reach criteria (≥80%), Mean±SEM: 255.0±9.6
[2]; Mann-Whitney's U test, saline vs cocaine+ANA-12, p>0.05
  difference in number of trials to reach criteria vs saline-exposed mice: no significant difference
[2]; Student's t-test, p>0.05
  time course of reversal learning vs saline-exposed mice: not significantly different
[2]; cocaine+ANA-12 group
  median number of trials needed to reach criteria following reversal of the odors: 290
[2]; cocaine+ANA-12 group vs saline (U=3.5, p>0.05)
  mean rank, Mann-Whitney's U test, number of trials to reach criteria: 22.5
[2]; day 2 (blocks 11-20), t=3.557, df=124, p<0.01, FIG. 2A
  % correct responses in reversal learning, post-hoc Bonferroni comparison cocaine versus cocaine+ANA-12: significant difference
[2]; prenatally cocaine-exposed mice injected with ANA-12, FIG. 2B
  percentage of mice that reached criteria (at least 80% correct) over the two days: 57%
TrkA
  effect on TrkA functions: without substantially altering
mice
  anxiety- and depression-related behaviors: reduced anxiety- and depression-related behaviors
